Measurements reported in ChEMBL document CHEMBL5325509, “Pyrrolidinedione-thiazolidinone hybrid molecules with potent cytotoxic effect in squamous cell carcinoma SCC-15 cells” (Bioorg Med Chem, 2023).
The source made the active and inactive calls. The rule behind the calls is not given here.

Columns and labels:
Glioblastoma cell line = assay: Cytotoxicity against human Glioblastoma cell line assessed as inhibition of cell growth measured at 72 hrs; assay type: functional, cell-based
SCC-15 [1] = assay: Cytotoxicity against human SCC-15 cells assessed as LDH release incubated for 48 hrs; assay type: functional, cell-based; details: SCC-15, 48 h
[2] = Cytotoxicity against human Cervical carcinoma cell assessed as inhibition of cell growth measured at 72 hrs; assay type: functional, cell-based
SCC-15 [3] = assay: Induction of intracellular ROS generation in human SCC-15 cells at 0.001 to 100 uM by DCFH-DA staining based immunofluorescence analysis; assay type: functional, cell-based; details: dose 0.001-100 µM, time 24-48 hrs, TDE = time-dependent effect
SCC-15 [4] = assay: Cytotoxicity against human SCC-15 cells assessed as decrease in cellular metabolic activity at 50 uM incubated for 24 hrs by resazurin reduction assay relative to control; assay type: functional; parameters: scale not given: the % may be the effect or the level left
[5] = Downregulation of PPARgamma mRNA expression in human SCC-15 cells at 1 uM measured after 24 hrs by RT-PCR analysis (reference value: 79.68 %); assay type: functional
SCC-15 [6] = assay: Cytotoxicity against human SCC-15 cells assessed as decrease in cellular metabolic activity at 50 uM incubated for 48 hrs by resazurin reduction assay relative to control; assay type: functional; parameters: scale not given: the % may be the effect or the level left
SCC-15 [7] = assay: Cytotoxicity against human SCC-15 cells assessed as LDH release at 100 uM incubated for 48 hrs relative to control; assay type: functional
[8] = Cytotoxicity against human HaCaT cells assessed reduction in cellular metabolic activity incubated for 72 hrs by MTT assay; assay type: toxicity, cell-based
SCC-15 [9] = assay: Induction of intracellular ROS generation in human SCC-15 cells incubated for 24 to 48 hrs by DCFH-DA staining based immunofluorescence analysis; assay type: functional, cell-based; details: dose 0.001-100 µM, time 24-48 hrs
SCC-15 [10] = assay: Cytotoxicity against human SCC-15 cells assessed as decrease in cellular metabolic activity at 100 uM incubated for 48 hrs by resazurin reduction assay relative to control; assay type: functional; parameters: scale not given: the % may be the effect or the level left
SCC-15 [11] = assay: Cytotoxicity against human SCC-15 cells assessed as decrease in cellular metabolic activity at 100 uM incubated for 24 hrs by resazurin reduction assay relative to control; assay type: functional; parameters: scale not given: the % may be the effect or the level left
[12] = Upregulation of PPARgamma expression in PPARgamma-silenced human SCC-15 cells at 1 uM incubated for 48 hrs Western blot analysis relative to control; assay type: functional
[13] = Upregulation of Caspase-3 activity in human SCC-15 cells at 100 uM measured after 48 hrs in presence of Ac-DEVD-AMC by fluorescence microplate reader analysis; assay type: functional
Leukemic tumor cell line = assay: Cytotoxicity against human Leukemic tumor cell line assessed as inhibition of cell growth measured at 72 hrs; assay type: functional, cell-based
[14] = Upregulation of Caspase-3 activity in human SCC-15 cells at 100 uM measured after 24 hrs in presence of Ac-DEVD-AMC by fluorescence microplate reader analysis; assay type: functional
SCC-15 [15] = assay: Cytotoxicity against human SCC-15 cells assessed as LDH release at 10 uM incubated for 24 hrs relative to control; assay type: functional
[16] = Cytotoxicity against human HaCaT cells assessed reduction in cellular metabolic activity incubated for 24 to 72 hrs by MTT assay; assay type: toxicity, cell-based
BALB/3T3 = assay: Cytotoxicity against mouse BALB/3T3 cells assessed reduction in cellular metabolic activity at 0.1 to 100 uM incubated for 24 to 72 hrs by MTT assay; assay type: toxicity, cell-based; details: balb/3t3, 100 µM, dose lower 0.1 µM, time lower 24 hrs, dose upper 100 µM, time upper 72 hrs
SCC-15 [17] = assay: Cytotoxicity against human SCC-15 cells assessed as LDH release at 50 uM incubated for 24 hrs relative to control; assay type: functional
[18] = Cytotoxicity against mouse BALB/3T3 cells assessed reduction in cellular metabolic activity incubated for 24 to 72 hrs by MTT assay; assay type: toxicity, cell-based
SCC-15 [19] = assay: Cytotoxicity against human SCC-15 cells assessed as LDH release incubated for 24 hrs; assay type: functional, cell-based; details: SCC-15, 24 h
[20] = Downregulation of PPARgamma mRNA expression in PPARgamma-silenced human SCC-15 cells at 1 uM measured after 24 hrs by RT-PCR analysis; assay type: functional
SCC-15 [21] = assay: Cytotoxicity against human SCC-15 cells assessed as decrease in cellular metabolic activity incubated for 24 hrs by resazurin reduction assay; assay type: functional, cell-based; details: SCC-15, 24 h
[22] = Upregulation of AHR expression in PPARgamma-silenced human SCC-15 cells at 1 uM incubated for 48 hrs Western blot analysis relative to control; assay type: functional
[23] = Upregulation of Ki67 expression in PPARgamma-silenced human SCC-15 cells at 1 uM incubated for 48 hrs Western blot analysis relative to siRNA control; assay type: functional
[24] = Upregulation of AHR mRNA expression in PPARgamma knockdown human SCC-15 cells at 1 uM measured after 24 hrs by RT-PCR analysis; assay type: functional
[25] = Upregulation of AHR mRNA expression in PPARgamma-silenced human SCC-15 cells at 1 uM measured after 24 hrs by RT-PCR analysis; assay type: functional
[26] = Upregulation of PCNA expression in PPARgamma-silenced human SCC-15 cells at 1 uM incubated for 48 hrs Western blot analysis relative to siRNA control; assay type: functional
HaCaT = assay: Cytotoxicity against human HaCaT cells assessed reduction in cellular metabolic activity at 0.1 to 100 uM incubated for 24 to 72 hrs by MTT assay; assay type: toxicity, cell-based; details: dose lower 0.1 µM, time lower 24 hrs, dose upper 100 µM, time upper 72 hrs
SCC-15 [27] = assay: Cytotoxicity against human SCC-15 cells assessed as decrease in cellular metabolic activity at 10 uM incubated for 48 hrs by resazurin reduction assay relative to control; assay type: functional; parameters: scale not given: the % may be the effect or the level left
SCC-15 [28] = assay: Induction of intracellular ROS generation in human SCC-15 cells at 50 to 100 uM incubated for 24 hrs by DCFH-DA staining based immunofluorescence analysis; assay type: functional; details: dose 50-100 µM
[29] = Downregulation of AHR expression in PPARgamma-silenced human SCC-15 cells at 1 uM incubated for 48 hrs Western blot analysis relative to SiRNA control; assay type: functional
Colon carcinoma cell = assay: Cytotoxicity against human Colon carcinoma cell assessed as inhibition of cell growth measured at 72 hrs; assay type: functional, cell-based
[30] = Upregulation of Ki67 expression in human SCC-15 cells at 1 uM incubated for 48 hrs Western blot analysis relative to control; assay type: functional
SCC-15 [31] = assay: Induction of intracellular ROS generation in human SCC-15 cells at 50 to 100 uM incubated for 48 hrs by DCFH-DA staining based immunofluorescence analysis; assay type: functional; details: dose 50-100 µM
SCC-15 [32] = assay: Cytotoxicity against human SCC-15 cells assessed as LDH release at 50 uM incubated for 48 hrs relative to control; assay type: functional
SCC-15 [33] = assay: Induction of intracellular ROS generation in human SCC-15 cells at 0.001 to 10 uM incubated for 24 to 48 hrs by DCFH-DA staining based immunofluorescence analysis; assay type: functional, cell-based; details: dose 0.001-10 µM, time 24-48 hrs
[34] = Upregulation of NRFL2 mRNA expression in PPARgamma knockdown human SCC-15 cells at 1 uM measured after 24 hrs by RT-PCR analysis; assay type: functional
[35] = Downregulation of NRFL2 mRNA expression in human SCC-15 cells at 1 uM measured after 24 hrs by RT-PCR analysis (reference value: 18.36 %); assay type: functional
SCC-15 [36] = assay: Cytotoxicity against human SCC-15 cells assessed as decrease in cellular metabolic activity incubated for 48 hrs by resazurin reduction assay; assay type: functional, cell-based; details: SCC-15, 48 h
[37] = Downregulation of AHR mRNA expression in human SCC-15 cells at 1 uM measured after 24 hrs by RT-PCR analysis (reference value: 17.30 %); assay type: functional
Lung cancer cell line = assay: Cytotoxicity against human Lung cancer cell line assessed as inhibition of cell growth measured at 72 hrs; assay type: functional, cell-based
Breast carcinoma cell = assay: Cytotoxicity against human Breast carcinoma cell assessed as inhibition of cell growth measured at 72 hrs; assay type: functional, cell-based
[38] = Downregulation of PCNA expression in PPARgamma-silenced human SCC-15 cells at 1 uM incubated for 48 hrs Western blot analysis relative to control; assay type: functional
SCC-15 [39] = assay: Cytotoxicity against human SCC-15 cells assessed as decrease in cellular metabolic activity at 10 uM incubated for 24 hrs by resazurin reduction assay relative to control; assay type: functional; parameters: scale not given: the % may be the effect or the level left
[40] = Upregulation of PPARgamma expression in human SCC-15 cells at 1 uM incubated for 48 hrs Western blot analysis relative to control; assay type: functional
SCC-15 [41] = assay: Cytotoxicity against human SCC-15 cells assessed as LDH release at 100 uM incubated for 24 hrs relative to control; assay type: functional

O=C1CC(N2C(=O)/C(=C/C(Cl)=C/c3ccc([N+](=O)[O-])cc3)SC2=S)C(=O)N1c1ccc(O)cc1 (stereo not drawn)
IC50 (Glioblastoma cell line): 1 µM
EC50 (SCC-15 [1]): 32.8 µM
IC50 [2]: 1 µM
Activity (SCC-15 [3]): Tde
Activity (SCC-15 [4]): 77%
Activity [5]: 21.32%
Activity (SCC-15 [6]): 82.23%
Activity (SCC-15 [7]): 90.92%
IC50 at 72 h [8]: 73.6 µM
Activity (SCC-15 [9]): Dose-Dependent Effect
Activity (SCC-15 [10]): 83.18%
Activity (SCC-15 [11]): 79.14%
Activity [12]: 19.96%
Activity [13]: 62.85%
IC50 (Leukemic tumor cell line): 1 µM
Activity [14]: 74.97%
Activity (SCC-15 [15]): 16.8%
IC50 [16]: > 100 µM
Activity (BALB/3T3): Non-Toxic
Activity (SCC-15 [17]): 106.2%
IC50 [18]: > 100 µM
EC50 (SCC-15 [19]): 24.9 µM
Activity [20]: 60.85%
IC50 (SCC-15 [21]): 17.7 µM
Activity [22]: 4.74%
Activity [23]: 41.15%
Activity [24]: 15.99%
Activity [25]: 33.59%
Activity [26]: 23.6%
Activity (HaCaT): Non-Toxic
Activity (SCC-15 [27]): 69.88%
Activity (SCC-15 [28]): 11.01%
Activity [29]: 32.59%
IC50 (Colon carcinoma cell): 1 µM
Activity [30]: 28.61%
Activity (SCC-15 [31]): 23.37%
Activity (SCC-15 [32]): 150.7%
Activity (SCC-15 [33]): inactive
Activity [34]: 5.73%
Activity [35]: 13.77%
IC50 (SCC-15 [36]): 6.72 µM
Activity [37]: 34.9%
IC50 (Lung cancer cell line): 1 µM
IC50 (Breast carcinoma cell): 1 µM
Activity [38]: 66.68%
Activity (SCC-15 [39]): 43.58%
Activity [40]: 18.58%
Activity (SCC-15 [41]): 115.3%
